This experiment addresses T1, PPAR-γ (Homo sapiens, UniProt P37231).
T1 sequence (P37231 1-505): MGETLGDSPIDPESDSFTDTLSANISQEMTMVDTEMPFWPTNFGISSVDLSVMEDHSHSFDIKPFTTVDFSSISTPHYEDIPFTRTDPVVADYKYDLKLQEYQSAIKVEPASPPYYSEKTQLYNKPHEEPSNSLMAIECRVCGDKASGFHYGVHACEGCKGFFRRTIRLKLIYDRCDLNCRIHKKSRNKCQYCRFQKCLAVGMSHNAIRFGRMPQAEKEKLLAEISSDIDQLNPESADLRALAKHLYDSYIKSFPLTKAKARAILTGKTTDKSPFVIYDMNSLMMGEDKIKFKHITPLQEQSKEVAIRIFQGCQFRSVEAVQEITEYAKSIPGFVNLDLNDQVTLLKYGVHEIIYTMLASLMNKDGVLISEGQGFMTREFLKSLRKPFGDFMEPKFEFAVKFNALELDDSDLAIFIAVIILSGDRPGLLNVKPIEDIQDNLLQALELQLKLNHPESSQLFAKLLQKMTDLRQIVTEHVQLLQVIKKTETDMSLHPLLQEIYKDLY
Description: Scintillation Proximity Assay (SPA), displacement of 3H labeled darglitazone from PPAR-γ. Format: binding. As to conditions: PPAR protein on polylysine beads, read-out: PPAR-γKi. The text has this: Scintillatian Proximity Assay (SPA) Assays
In the SPA assay, 3H labeled darglitazone (for PPAR-γ) or GW^2331 (for PPAR-α) in bound to the PPAR protein captured on SPA polylysine beads and generates radioactive count signal that can be detected by TopCounts (Packard). The PPAR-bound 3H labeled ligand can be displaced by an unlabeled compound. The Ki of the compound can be then determined by the extent of displacement at various compound concentrations.
SPA polylysine beads, which can be purchased from Amersham Bioscience.
3H labeled Darglitazone for PPAR-γ.
Buffer—PBS, 10% glycerol, 14 mM beta-mercaptoethanol.
(In general: Scintillation proximity formats need no separation of bound from free tracer.)

SMILES strings stand for the structures. Bounds are passed on as bounds.

Consider `Cc1oc(-c2ccccc2)nc1CCOc1ccc2cnn(CCC(=O)O)c2c1` [Example 21, 3-{6-[2-(5-methyl-2-phenyl-1,3-oxazol-4-yl)ethoxy]-1H-indazol-1-yl}propanoic acid], for which the Ki is above 50 µM. In the case of `Cc1oc(-c2ccccc2)nc1COc1cccc2c1cnn2CCCC(=O)O` [Example 15, 4-{4-[(5-methyl-2-phenyl-1,3-oxazol-4-yl)methoxy]-1H-indazol-1-yl}butanoic acid] it was 10 µM; in that of `Cc1oc(-c2ccccc2)nc1CCOc1cccc2c1c(Cl)cn2CCC(=O)O` [Example 50], 4.9 µM; in that of `Cc1oc(-c2ccccc2)nc1CCOc1cccc2c1c(C(=O)C(F)(F)F)cn2CCC(=O)O` [Example 44], 19 µM.

Regarding `O=C(O)CCn1ncc2c(OCc3nc(-c4ccccc4)oc3-c3ccccc3)cccc21` [Example 14, 3-{4-[(2,5-diphenyl-1,3-oxazol-4-yl)methoxy]-1H-indazol-1-yl}propanoic acid], the Ki was 3.7 µM.

In the case of `Cc1oc(-c2ccccc2)nc1CCCOc1cccc2c1cnn2CCC(=O)O` [Example 27, 3-{4-[3-(5-methyl-2-phenyl-1,3-oxazol-4-yl)propoxy]-1H-indazol-1-yl}propanoic acid], the Ki is above 50 µM. With `Cc1oc(-c2ccccc2)nc1COc1cccc2c1cnn2CC(=O)O` [Example 16, {4-[(5-methyl-2-phenyl-1,3-oxazol-4-yl)methoxy]-1H-indazol-1-yl}acetic acid] the figure was above 100 µM; with `Cc1oc(-c2ccccc2)nc1CCOc1cccc2c1cnn2CCC(=O)O` [Example 1, 3-{4-[2-(5-methyl-2-phenyl-1,3-oxazol-4-yl)ethoxy]-1H-indazol-1-yl}propanoic acid], 0.58 µM; with `Cc1oc(-c2ccccc2)nc1COc1ccc2cnn(CCC(=O)O)c2c1` [Example 13, 3-{6-[(5-methyl-2-phenyl-1,3-oxazol-4-yl)methoxy]-1H-indazol-1-yl}propanoic acid], 41 µM. With `Cc1oc(-c2ccccc2)nc1CCCn1ncc2c(OC(C)(C)C(=O)O)cccc21` [Example 33, 2-methyl-2-({1-[3-(5-methyl-2-phenyl-1,3-oxazol-4-yl)propyl]-1H-indazol-4-yl}oxy)propanoic acid] the figure was 7 µM; with `O=C(O)Cn1ncc2c(OCc3nc(-c4ccccc4)oc3-c3ccccc3)cccc21` [Example 12, {4-[(2,5-diphenyl-1,3-oxazol-4-yl)methoxy]-1H-indazol-1-yl)acetic acid], 4 µM. In the case of `Cc1oc(-c2ccccc2)nc1CCOc1cccc2c1ccn2CC(=O)O` [Example 48] it was 30 µM. As for `Cc1oc(-c2ccccc2)nc1CCOc1ccc2cnn(CCCC(=O)O)c2c1` [Example 22, 4-{6-[2-(5-methyl-2-phenyl-1,3-oxazol-4-yl)ethoxy]-1H-indazol-1-yl}butanoic acid], the Ki was above 50 µM. With `O=C(O)CCn1ncc2ccc(OCc3nc(-c4ccccc4)oc3-c3ccccc3)cc21` [Example 6, 3-{6-[(2,5-diphenyl-1,3-oxazol-4-yl)methoxy]-1H-indazol-1-yl}propanoic acid], the Ki amounted to 1.8 µM. With `Cc1oc(-c2ccccc2)nc1CCOc1cccc2c1cnn2CC(=O)O` [Example 49] the figure was above 50 µM; with `O=C(O)CCCn1ncc2ccc(OCc3nc(-c4ccccc4)oc3-c3ccccc3)cc21` [Example 10, 4-{6-[(2,5-diphenyl-1,3-oxazol-4-yl)methoxy]-1H-indazol-1-yl}butanoic acid], above 100 µM; with `Cc1oc(-c2ccccc2)nc1CCOc1cccc2c1ccn2CC(CCC(=O)O)C(=O)O` (stereo not shown) [Example 51], above 100 µM. With `O=C(O)Cn1ncc2ccc(OCc3nc(-c4ccccc4)oc3-c3ccccc3)cc21` [Example 7, {6-[(2,5-diphenyl-1,3-oxazol-4-yl)methoxy]-1H-indazol-1-yl}acetic acid] the figure was 6.9 µM; with `Cc1oc(-c2ccccc2)nc1CCOc1ccc2cnn(CC(=O)O)c2c1` [Example 20, {6-[2-(5-methyl-2-phenyl-1,3-oxazol-4-yl)ethoxy]-1H-indazol-1-yl}acetic acid], above 50 µM; with `Cc1oc(-c2ccccc2)nc1COc1cccc2c1cnn2CCC(=O)O` [Example 17, 3-{4-[(5-methyl-2-phenyl-1,3-oxazol-4-yl)methoxy]-1H-indazol-1-yl}propanoic acid], 4 µM. With `Cc1oc(-c2ccccc2)nc1CCn1ccc2c(OCC(=O)O)ccnc21` [Example 47] the figure was above 50 µM; with `O=C(O)CCCn1ncc2c(OCc3nc(-c4ccccc4)oc3-c3ccccc3)cccc21` [Example 11, 4-{4-[(2,5-diphenyl-1,3-oxazol-4-yl)methoxy]-1H-indazol-1-yl}butanoic acid], above 100 µM. Turning to `Cc1oc(-c2ccccc2)nc1CCCOc1cccc2c1cnn2CCCC(=O)O` [Example 23, 4-{4-[3-(5-methyl-2-phenyl-1,3-oxazol-4-yl)propoxy]-1H-indazol-1-yl}butanoic acid], the Ki was above 50 µM. With `Cc1oc(-c2ccccc2)nc1COc1ccc2cnn(CC(=O)O)c2c1` [Example 4, {6-[(5-methyl-2-phenyl-1,3-oxazol-4-yl)methoxy]-1H-indazol-1-yl}acetic acid] the figure was above 50 µM; with `Cc1oc(-c2ccccc2)nc1CCOc1ccnc2c1ccn2CCC(=O)O` [Example 45], 9 µM; with `Cc1oc(-c2ccccc2)nc1CCOc1ccnc2c(CCC(=O)O)cccc12` [Example 53], 8.5 µM. Turning to `Cc1oc(-c2ccccc2)nc1CCCOc1cccc2c1cnn2CC(=O)O` [Example 25, {4-[3-(5-methyl-2-phenyl-1,3-oxazol-4-yl)propoxy]-1H-indazol-1-yl}acetic acid], the Ki is above 50 µM. With `Cc1oc(-c2ccccc2)nc1CCOc1cccc2c1cnn2CCCC(=O)O` [Example 18] the figure was above 50 µM; with `Cc1oc(-c2ccccc2)nc1CCNc1ccnc2c1ccn2CCC(=O)O` [Example 46], 0.58 µM. In the case of `Cc1oc(-c2ccccc2)nc1COc1cccc2c1ccn2CCCC(=O)O` [Example 55] it was above 100 µM; in that of `Cc1oc(-c2ccccc2)nc1CCOc1cccc2c1ncn2CCC(=O)O` [Example 34, 3-{4-[2-(5-methyl-2-phenyl-1,3-oxazol-4-yl)ethoxy]-1H-benzimidazol-1-yl}propanoic acid], above 50 µM; in that of `Cc1oc(-c2ccccc2)nc1CCOc1cccc2c1ccn2CCCC(=O)O` [Example 54], 16 µM. Regarding `Cc1oc(-c2ccccc2)nc1CCOc1ccnc2c1ccn2CC(=O)O` [Example 29, {4-[2-(5-methyl-2-phenyl-1,3-oxazol-4-yl)ethoxy]-1H-pyrrolo[2,3-b]pyridin-1-yl}acetic acid], the Ki is above 50 µM. With `Cc1oc(-c2ccccc2)nc1COc1ccc2cnn(CCCC(=O)O)c2c1` [Example 3, 4-{6-[(5-methyl-2-phenyl-1,3-oxazol-4-yl)methoxy]-1H-indazol-1-yl}butanoic acid] the figure was above 100 µM.

These data come from patent publication US20040209929A1, “Fused heteroaryl carboxylic acids as PPAR agonists” (Agouron Pharmaceuticals, Inc., priority 2003, published 2004).
